Source: PMC5799184, “Gs- versus Golf-dependent functional selectivity mediated by the dopamine D1 receptor” (Nature Communications, 2018)

Assays:
[1] = biological target: T1, D1R-Rluc with β-arrestin-2-Venus (Homo sapiens, UniProt P21728); assay type: cell-based; details: agonist; GRK2 co-transfected; HEK-293T cells
T1 construct: gene DRD1; D1R with N-terminal signal peptide and Flag or Myc tag, fused to Renilla luciferase 8; GRK2 co-transfected; HEK-293T cells; with Beta-arrestin-2

D3R, Go activation = biological target: T2, D3R, Go activation (Homo sapiens, UniProt P35462); assay: BRET Go activation (GαoA-Rluc / γ2-GFP10); assay type: cell-based; details: partial agonist; HEK-293T cells
T2 construct: gene DRD3; N-terminal signal peptide and Flag or Myc tag; co-transfected GαoA91-Rluc, Gγ2-GFP10 and untagged Gβ2; HEK-293T cells
T2 sequence (P35462 whole entry): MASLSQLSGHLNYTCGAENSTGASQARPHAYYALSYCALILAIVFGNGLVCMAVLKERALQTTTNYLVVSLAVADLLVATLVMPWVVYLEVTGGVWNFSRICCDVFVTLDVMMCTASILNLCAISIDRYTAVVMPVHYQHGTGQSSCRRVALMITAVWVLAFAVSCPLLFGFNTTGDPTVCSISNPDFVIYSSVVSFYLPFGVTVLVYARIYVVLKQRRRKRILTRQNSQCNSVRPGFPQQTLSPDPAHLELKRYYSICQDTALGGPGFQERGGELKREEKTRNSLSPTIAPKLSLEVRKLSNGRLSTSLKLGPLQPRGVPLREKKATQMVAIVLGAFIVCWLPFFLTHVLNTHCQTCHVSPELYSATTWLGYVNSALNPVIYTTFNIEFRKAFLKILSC
T2 sequence (P09471 2-354 partner): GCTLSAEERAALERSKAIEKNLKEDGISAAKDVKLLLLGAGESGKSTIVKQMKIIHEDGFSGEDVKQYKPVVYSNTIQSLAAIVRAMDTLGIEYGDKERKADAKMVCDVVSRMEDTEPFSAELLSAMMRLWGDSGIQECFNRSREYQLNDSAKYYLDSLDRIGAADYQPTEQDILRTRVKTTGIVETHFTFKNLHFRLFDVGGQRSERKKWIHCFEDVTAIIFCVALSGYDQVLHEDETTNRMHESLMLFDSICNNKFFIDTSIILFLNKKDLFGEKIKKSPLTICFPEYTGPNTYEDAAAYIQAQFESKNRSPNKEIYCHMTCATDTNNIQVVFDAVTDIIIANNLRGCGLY

[2] = biological target: T3, D2R (D2SR), Go activation (Homo sapiens, UniProt P14416); details: partial agonist; HEK-293T cells
T3 construct: gene DRD2
T3 sequence (P14416 1-414 isoform P14416-2): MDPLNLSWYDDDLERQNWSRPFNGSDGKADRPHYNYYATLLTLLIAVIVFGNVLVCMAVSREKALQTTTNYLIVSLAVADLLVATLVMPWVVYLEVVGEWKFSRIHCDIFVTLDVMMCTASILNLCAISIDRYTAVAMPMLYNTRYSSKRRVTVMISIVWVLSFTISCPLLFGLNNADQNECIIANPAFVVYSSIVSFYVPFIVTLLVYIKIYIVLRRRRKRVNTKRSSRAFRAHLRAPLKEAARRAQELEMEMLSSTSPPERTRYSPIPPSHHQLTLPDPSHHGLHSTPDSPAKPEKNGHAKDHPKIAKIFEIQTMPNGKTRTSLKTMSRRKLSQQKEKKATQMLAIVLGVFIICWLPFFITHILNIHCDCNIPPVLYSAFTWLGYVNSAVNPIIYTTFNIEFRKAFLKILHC
T3 sequence (P09471 2-354 partner): as the sequence (P09471 2-354 partner) above

[3] = biological target: T4, D1R-Rluc with Golf-Venus (D1L_GolfV) (Homo sapiens, UniProt P21728); assay: BRET receptor-Gα engagement, D1R-Rluc / Golf-Venus; assay type: cell-based; details: antagonist against […] SKF81297; HEK-293T cells
T4 construct: gene DRD1; D1R with N-terminal signal peptide and Flag or Myc tag, fused to Renilla luciferase 8; Gαolf with inserted Venus; G protein chaperone Ric8B co-transfected, untagged Gβ2 and Gγ7 available; HEK-293T cells
T4 sequence (P21728 whole entry, the tested form may be a part): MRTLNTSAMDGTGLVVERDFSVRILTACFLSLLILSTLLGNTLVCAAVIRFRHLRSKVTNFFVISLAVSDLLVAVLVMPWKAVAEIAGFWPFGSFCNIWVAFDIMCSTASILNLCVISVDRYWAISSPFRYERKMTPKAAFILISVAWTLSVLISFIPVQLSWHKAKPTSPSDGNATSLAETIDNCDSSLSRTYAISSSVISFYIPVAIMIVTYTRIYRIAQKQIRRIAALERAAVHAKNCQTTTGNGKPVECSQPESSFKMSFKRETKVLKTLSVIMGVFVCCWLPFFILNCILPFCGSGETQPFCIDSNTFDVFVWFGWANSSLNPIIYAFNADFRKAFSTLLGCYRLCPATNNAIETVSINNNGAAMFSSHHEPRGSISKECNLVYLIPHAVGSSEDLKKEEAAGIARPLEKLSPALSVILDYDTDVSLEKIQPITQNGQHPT
T4 sequence (P38405 2-381 partner): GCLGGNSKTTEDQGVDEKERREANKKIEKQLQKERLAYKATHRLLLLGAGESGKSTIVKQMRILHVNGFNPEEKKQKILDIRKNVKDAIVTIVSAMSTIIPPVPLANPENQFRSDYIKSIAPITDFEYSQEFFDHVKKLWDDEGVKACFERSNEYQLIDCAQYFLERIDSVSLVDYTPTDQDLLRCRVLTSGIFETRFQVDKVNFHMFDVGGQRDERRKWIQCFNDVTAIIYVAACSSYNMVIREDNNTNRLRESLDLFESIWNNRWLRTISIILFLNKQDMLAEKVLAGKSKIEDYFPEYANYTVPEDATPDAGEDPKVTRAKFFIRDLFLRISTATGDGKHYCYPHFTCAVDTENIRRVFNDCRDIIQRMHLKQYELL

T1 sequence (P21728 whole entry, the tested form may be a part): as the sequence (P21728 whole entry, the tested form may be a part) above
T1 sequence (P32121 whole entry partner, the tested form may be a part): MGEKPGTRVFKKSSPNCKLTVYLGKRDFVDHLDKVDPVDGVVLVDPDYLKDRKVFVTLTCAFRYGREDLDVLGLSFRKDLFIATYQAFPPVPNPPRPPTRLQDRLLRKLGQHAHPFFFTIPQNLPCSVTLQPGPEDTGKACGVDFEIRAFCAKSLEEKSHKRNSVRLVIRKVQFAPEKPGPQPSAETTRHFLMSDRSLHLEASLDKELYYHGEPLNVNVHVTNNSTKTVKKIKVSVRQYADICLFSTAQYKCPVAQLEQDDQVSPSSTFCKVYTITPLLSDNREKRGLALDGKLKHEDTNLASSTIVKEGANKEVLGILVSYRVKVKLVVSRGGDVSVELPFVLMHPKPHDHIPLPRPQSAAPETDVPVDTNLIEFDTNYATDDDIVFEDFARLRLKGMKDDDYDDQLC

| Compound | EC50 [1] | also measured |
| --- | --- | --- |
| NC[C@@H]1O[C@H](C23CC4CC(CC(C4)C2)C3)Cc2c1ccc(O)c2O [A77636] | A77636 and SKF82958 maintained their high potencies and efficacies in the β-arrestin-2 recruitment assay | – |
| Oc1cc2c(cc1O)C1c3ccccc3CNC1CC2 (centres unmarked) [DHX] | DHX and NPA behaved similarly to Gs engagement in terms of efficacy and potency | EC50 (D3R, Go activation): less efficacious at D2R and D3R-mediated Go activation than at D1R-mediated Gs activation; EC50 [2]: less efficacious at D2R and D3R-mediated Go activation than at D1R-mediated Gs activation |
| CCCN1CCc2cccc3c2[C@H]1Cc1ccc(O)c(O)c1-3 [NPA] | DHX and NPA behaved similarly to Gs engagement in terms of efficacy and potency | – |
| CN1CCc2cc(Cl)c(O)cc2[C@@H](c2ccccc2)C1 [SCH23390] | – | IC50 [3]: Dose-response curves of BRET between D1R-Rluc and Golf-Venus (same color scheme) |
| Oc1cc2c(cc1O)C(c1ccccc1)CNCC2 (centres unmarked) [SKF38393] | SKF81297 and SKF38393 showed reduced and minimal β-arrestin-2 recruitment, respectively | – |
| C=CCN1CCc2c(cc(O)c(O)c2Cl)C(c2ccccc2)C1 (centres unmarked) [SKF82958] | A77636 and SKF82958 maintained their high potencies and efficacies in the β-arrestin-2 recruitment assay | – |
